Laboratory results reported in US12048737B2, “Use of a vaccine targeting a cryptic tert epitope, for treating cancer in a HLA-A*0201-positive patient having a non-immunogenic tumor expressing tert” (KRIPTIC PHARMACEUTICALS LIMITED, priority 2017, dated 2024).
“And” between values parts separate entries of the source, which are not always exact repeats. Identical values can stand only once.

Tested on: NSCLC tumors expressing TElomerase Reverse Transcriptase (TERT)
Assay: Vx-001-201 randomized double blind phase IIb study: clinical outcome (OS, TTF, 12 months survival)
Type: in vivo, human
Excerpt: The Vx-001-201 study is a randomized, double blind multicenter study done in 70 centers in France, Germany, Spain, Italy, Greece, Poland, Romania and Czech Republic. Key eligibility criteria were a) non small cell lung cancer (NSCLC), b) stage IV or recurrent stage I-III, c) disease control after platinum based first line chemotherapy according to RECIST 1.1 criteria, d) HLA-A*0201 positivity, e) tumors expressing TElomerase Reverse Transcriptase (TERT), f) ECOG 0 or 1 g) absence of brain metastasis.
• a) Principal endpoint: overall survival (OS) measured from randomization • b) Secondary endpoints: • Time to Treatment Failure (TTF) measured from randomization • OS at 12 months • c) Main exploratory objectives • Evaluation of vaccine induced specific immune response • Correlation between vaccine specific immune response and clinical response Procedures and Vaccination Protocol
Patients who fulfilled all inclusion criteria were randomized within 4 weeks after the end of first line chemotherapy.
The vaccination protocol consisted in six vaccinations at three week interval. The optimized Vx-001/TERT572Y was used in the first two vaccinations and the native Vx-001/TERT572 in the following four vaccinations. Patients who continued controlling their disease after the sixth vaccination received boost vaccination with the Vx-001/TERT572 every three months. Vaccination was stopped at disease progression (FIG. 1).
The primary and secondary endpoints were analysed in the Full Analysis Set (FAS) composed of all patients who fulfilled the five main criteria a) NSCLC, b) stage IV or recurrent stage I-III, c) disease control after first line chemotherapy, d) HLA-A*0201 positivity and e) TERT expressing tumors.
We used the Kaplan-Meier method to estimate OS and TTF in each arm and a Cox proportional hazards regression model to estimate Hazard Ratio (HR) relating OS and TTF to the treatment effect.

[1] = FAS, all patients, Vx-001 vs placebo
[2] = FAS, OR to chemotherapy (n = 87)
[3] = FAS, SD to chemotherapy (n = 103)
[4] = Vx-001 responders vs non-responders
[5] = patients with no natural immunity
[6] = patients without natural immunity, Vx-001 vs placebo
[7] = vaccinated patients, Vx-001 immune non-responders
[8] = vaccinated patients, Vx-001 immune responders
[9] = with natural immunity, assessed before 26 days after end of chemotherapy
[10] = with natural immunity, assessed before 26 days after end of chemotherapy, Vx-001 vs placebo
[11] = within Vx-001 treated (n = 80): natural immunity vs no natural immunity
[12] = without natural immunity, assessed less than 26 days after end of chemotherapy
[13] = without natural immunity, assessed less than 26 days after end of chemotherapy, Vx-001 vs placebo
[14] = without natural immunity, 1st line CARBO (n = 74)
[15] = without natural immunity, 1st line CARBO (n = 74), Vx-001 vs placebo
[16] = without natural immunity, 1st line CDDP (n = 46)
[17] = without natural immunity, 1st line CDDP (n = 46), Vx-001 vs placebo
[18] = without natural immunity, <65 years (n = 59)
[19] = without natural immunity, <65 years (n = 59), Vx-001 vs placebo
[20] = without natural immunity, >65 years (n = 63)
[21] = without natural immunity, >65 years (n = 63), Vx-001 vs placebo
[22] = without natural immunity, Current smoker
[23] = without natural immunity, Current smoker, Vx-001 vs placebo
[24] = without natural immunity, Female (n = 33)
[25] = without natural immunity, Female (n = 33), Vx-001 vs placebo
[26] = without natural immunity, Heavy smoker (>25 years, former or current smoker)
[27] = without natural immunity, Male (n = 89)
[28] = without natural immunity, Male (n = 89), Vx-001 vs placebo
[29] = without natural immunity, NS + Former smoker (<30 years)
[30] = without natural immunity, NS + Former smoker (≤20 years)
[31] = without natural immunity, NS + Former smoker (≤25 years)
[32] = without natural immunity, NS or light smoker (≤25 years, former or current smoker)
[33] = without natural immunity, NSQ (n = 76)
[34] = without natural immunity, Never smoker (NS)
[35] = without natural immunity, OR to chemotherapy (n = 55)
[36] = without natural immunity, OR to chemotherapy (n = 55), Vx-001 vs placebo
[37] = without natural immunity, SD to chemotherapy (n = 67)
[38] = without natural immunity, SD to chemotherapy (n = 67), Vx-001 vs placebo
[39] = without natural immunity, SQ (n = 46)
[40] = without natural immunity, SQ (n = 46), Vx-001 vs placebo

Substance: Vx-001: vaccine composed of two nine amino acid peptides, TERT572 and TERT572Y, administered separately with the adjuvant Montanide ISA51 VG (chain 1 RLFFYRKSV; chain 2 YLFFYRKSV; Montanide ISA51 VG adjuvant; peptide from a human protein; optimized peptide)
- 12 months survival (FAS, all patients): 58%
- Median OS (FAS, all patients): 14.3 months
- Median TTF (FAS, all patients): 3.6 months
- HR (OS) [1]: 0.97
- HR (TTF) [1]: 0.88
- 12 months OS (FAS, 1st line CARBO (n = 119)): 58.2%
- Median survival (OS) (FAS, 1st line CARBO (n = 119)): 14.3 months
- HR (OS) (FAS, 1st line CARBO (n = 119), Vx-001 vs placebo): 1.06
- 12 months OS (FAS, 1st line CDDP (n = 69)): 59%
- Median survival (OS) (FAS, 1st line CDDP (n = 69)): 15 months
- HR (OS) (FAS, 1st line CDDP (n = 69), Vx-001 vs placebo): 0.81
- 12 months OS (FAS, <65 years (n = 92)): 57.7%
- Median survival (OS) (FAS, <65 years (n = 92)): 13.4 months
- HR (OS) (FAS, <65 years (n = 92), Vx-001 vs placebo): 1.2
- 12 months OS (FAS, >65 years (n = 98)): 59%
- Median survival (OS) (FAS, >65 years (n = 98)): 15 months
- HR (OS) (FAS, >65 years (n = 98), Vx-001 vs placebo): 0.78
- 12 months OS (FAS, Female (n = 59)): 53.3%
- Median survival (OS) (FAS, Female (n = 59)): 13.2 months
- HR (OS) (FAS, Female (n = 59), Vx-001 vs placebo): 1.52
- 12 months OS (FAS, Male (n = 131)): 61%
- Median survival (OS) (FAS, Male (n = 131)): 15 months
- HR (OS) (FAS, Male (n = 131), Vx-001 vs placebo): 0.81
- 12 months OS (FAS, NSQ (n = 118)): 55%
- Median survival (OS) (FAS, NSQ (n = 118)): 13.4 months
- HR (OS) (FAS, NSQ (n = 118), Vx-001 vs placebo): 0.88
- 12 months OS [2]: 69%
- Median survival (OS) [2]: 15.3 months
- HR (OS) (FAS, OR to chemotherapy (n = 87), Vx-001 vs placebo): 0.89
- 12 months OS [3]: 52%
- Median survival (OS) [3]: 14.3 months
- HR (OS) (FAS, SD to chemotherapy (n = 103), Vx-001 vs placebo): 0.99
- 12 months OS (FAS, SQ (n = 72)): 64%
- Median survival (OS) (FAS, SQ (n = 72)): 14.3 months
- HR (OS) (FAS, SQ (n = 72), Vx-001 vs placebo): 1.13
- HR (OS) [4]: 0.39
- HR (TTF) [4]: 0.41
- 12 months OS (patients with natural immunity): 65%
- Median TTF (patients with natural immunity): 2.9 months
- OS and 12 months survival, placebo vs Vx-001 (patients with natural immunity (FIG. 6)): no difference
- Median survival (OS) (patients with natural immunity against TERT572): 15.5 months
- 12 months OS [5]: 55%
- Median TTF [5]: 4.1 months
- Median survival (OS) (patients with no natural immunity against TERT572 (non-immunogenic tumors)): 13.2 months
- HR (OS) [6]: 0.80
- HR (TTF) [6]: 0.75
- Median OS [7]: 13.4 months
- Median TTF [7]: 3.6 months
- Median OS [8]: 21.3 months
- Median TTF [8]: 9.1 months
- Median OS [9]: 15.3 months
- Median TTF [9]: 2.2 months
- HR (OS) [10]: 1.54
- HR (TTF) [10]: 1.98
- HR (OS) [11]: 0.91
- HR (TTF) [11]: 0.83
- Median OS (without natural immunity, assessed later than 26 days after chemotherapy): 13.2 months
- HR (OS) (without natural immunity, assessed later than 26 days after chemotherapy, Vx-001 vs placebo): 0.96
- Median OS [12]: 11.7 months
- Median TTF [12]: 4.1 months
- HR (OS) [13]: 0.58
- HR (TTF) [13]: 0.62
- 12 months OS [14]: 53%
- Median TTF [14]: 3.7 months
- Median survival (OS) [14]: 13.1 months
- HR (OS) [15]: 1.03
- HR (TTF) [15]: 0.80
- 12 months OS [16]: 59%
- Median TTF [16]: 4.1 months
- Median survival (OS) [16]: 13.4 months
- HR (OS) [17]: 0.51
- HR (TTF) [17]: 0.67
- 12 months OS [18]: 53.6%
- Median TTF [18]: 3.5 months
- Median survival (OS) [18]: 12.7 months
- HR (OS) [19]: 1.00
- HR (TTF) [19]: 0.84
- 12 months OS [20]: 57.1%
- Median TTF [20]: 4.4 months
- Median survival (OS) [20]: 14.1 months
- HR (OS) [21]: 0.63
- HR (TTF) [21]: 0.65
- 12 months OS [22]: 20%
- Median TTF [22]: 4.4 months
- Median survival (OS) [22]: 6.4 months
- HR (OS) [23]: 1.3
- HR (TTF) [23]: 0.70
- 12 months OS [24]: 52.9%
- Median TTF [24]: 4.6 months
- Median survival (OS) [24]: 12.7 months
- HR (OS) [25]: 1.24
- HR (TTF) [25]: 0.91
- Median TTF (without natural immunity, Former smoker (<30 years)): 4.2 months
- HR (TTF) (without natural immunity, Former smoker (<30 years), Vx-001 vs placebo): 0.55
- Median TTF (without natural immunity, Former smoker (≤20 years) (never smoked or smokers less than 20 years)): 5.6 months
- HR (TTF) (without natural immunity, Former smoker (≤20 years) (never smoked or smokers less than 20 years), Vx-001 vs placebo): 0.39
- Median TTF (without natural immunity, Former smoker (≤25 years) (never smoked or smokers less than 25 years)): 5.6 months
- HR (TTF) (without natural immunity, Former smoker (≤25 years) (never smoked or smokers less than 25 years), Vx-001 vs placebo): 0.43
- 12 months OS [26]: 42.1%
- Median survival (OS) [26]: 9.9 months
- HR (OS) (without natural immunity, Heavy smoker (>25 years, former or current smoker), Vx-001 vs placebo): 1.15
- 12 months OS [27]: 56.4%
- Median TTF [27]: 3.7 months
- Median survival (OS) [27]: 14.1 months
- HR (OS) [28]: 0.70
- HR (TTF) [28]: 0.7
- 12 months OS [29]: 78%
- Median survival (OS) [29]: 20.2 months
- HR (OS) (without natural immunity, NS + Former smoker (<30 years), Vx-001 vs placebo): 0.37
- 12 months OS [30]: 80%
- Median survival (OS) [30]: 20.2 months
- HR (OS) (without natural immunity, NS + Former smoker (≤20 years), Vx-001 vs placebo): 0.23
- 12 months OS [31]: 82.3%
- Median survival (OS) [31]: 20.7 months
- HR (OS) (without natural immunity, NS + Former smoker (≤25 years), Vx-001 vs placebo): 0.29
- 12 months OS [32]: 83.0%
- Median survival (OS) [32]: 20.7 months
- HR (OS) (without natural immunity, NS or light smoker (≤25 years, former or current smoker), Vx-001 vs placebo): 0.27
- 12 months OS [33]: 56.7%
- Median survival (OS) [33]: 13.4 months
- HR (OS) (without natural immunity, NSQ (n = 76), Vx-001 vs placebo): 0.58
- Median TTF (without natural immunity, NSQ (n = 78)): 4.6 months
- HR (TTF) (without natural immunity, NSQ (n = 78), Vx-001 vs placebo): 0.61
- Median TTF (without natural immunity, Never smoker): 5.6 months
- 12 months OS [34]: 85.7%
- Median survival (OS) [34]: 16.2 months
- HR (OS) (without natural immunity, Never smoker (NS), Vx-001 vs placebo): 0.2
- HR (TTF) (without natural immunity, Never smoker, Vx-001 vs placebo): 0.51
- 12 months OS [35]: 59% and 57.9%
- Median TTF [35]: 5.3 months
- Median survival (OS) [35]: 13.2 months
- HR (OS) [36]: 0.72
- HR (TTF) [36]: 0.56
- 12 months OS [37]: 54%
- Median TTF [37]: 3.6 months
- Median survival (OS) [37]: 13.6 months
- HR (OS) [38]: 0.82
- HR (TTF) [38]: 0.95
- 12 months OS [39]: 52.6%
- Median TTF [39]: 3 months
- Median survival (OS) [39]: 13.2 months
- HR (OS) [40]: 1.41
- HR (TTF) [40]: 1.18
